Reference: patent publication US11912794B2, “Modulation of structured polypeptide specificity” (BicycleRD Limited, priority 2011, dated 2024)
Numbered stars: 1 amine (or outer) side, 2 acyl side, 3 side chain; on linkers, the order of the positions; unused ones are H or OH. Bridge positions count the residues as written; N and C are the ends. Square brackets hold non-standard residues; d marks the D form. Peptide text beside a SMILES is read from it. Pro(trans-4-F) = O=C(O)[C@@H]1C[C@@H](F)CN1; Bip = N[C@@H](Cc1ccc(-c2ccccc2)cc1)C(=O)O; Tpi = O=C(O)[C@@H]1Cc2c([nH]c3ccccc23)CN1; Dip = N[C@H](C(=O)O)C(c1ccccc1)c1ccccc1; X1 = O=C([C@@H]1Cc2ccccc2N1[*:1])[*:2]; 1Nal = N[C@@H](Cc1cccc2ccccc12)C(=O)O; TBMB = c1c(C[*:1])cc(C[*:3])cc1C[*:2]; NMeR = CN[C@@H](CCCNC(=N)N)C(=O)O; hArg = N=C(N)NCCCC[C@H](N)C(=O)O; 3Pal = N[C@@H](Cc1cccnc1)C(=O)O; 4Pal = N[C@@H](Cc1ccncc1)C(=O)O; Cha = N[C@@H](CC1CCCCC1)C(=O)O; Pip = O=C(O)[C@@H]1CCCCN1; Dpg = CCCC(N)(CCC)C(=O)O; Aze = O=C(O)[C@@H]1CCN1

Assay: Plasma stability profiling method 1 (35% plasma, MALDI-TOF, qualitative)
Assay type: in vitro ADME, rat
Conditions: 35% rat plasma, 37 deg C, method 1, comparative estimate
Method: Three methods were employed to assess the stability of bicycles (peptides conjugated to molecular scaffolds) in plasma.
A rapid plasma stability profiling assay was developed that employed mass spectrometric detection (MALDI-TOF, Voyager DE, Applied Biosystems) of the parent mass, until the time when the parent peptide mass was no longer observable. Specifically, 200 uM of peptide was incubated in the presence of 35% rat or human plasma (Sera labs, using citrate as anticoagulant) at 37 deg C., which was supplemented with 1×PBS (derived from a 10×PBS Stock, Sigma). At various time points (i.e. t=0, 3, 24 hrs, henceafter daily up to 10 days), 2 uL of sample was added to 18 uL of 30 mM ammonium bicarbonate in a 1:1 mixture of acetonitrile:H2O. Samples were frozen at −80 deg C. until the time of analysis. For mass spectrometric analysis that determines the approximate detection window of the peptide, the acetonitrile:H2O-diluted sample of a given time point was spotted directly (0.7 uL) onto the MALDI plate. Matrix (alpha-cyanocinnamic acid, Sigma, prepared as a saturated solution in 1:1 acetonitrile:water containing 0.1% trifluoroacetic acid) was layered over the sample (1 uL). At a similar laser intensity setting on the MALDI TOF, the time could then be determined until parent peptide was no longer detectable. It should be noted that this is a qualitative assay serves to detect relative changes in plasma stability.

Observable in rat plasma, for days, 2 days:
CC(=O)N[C@H]1CSCc2cc3cc(c2)CSC[C@H](NC(=O)[C@H](CCCNC(=N)N)NC(=O)[C@H](C)NC(=O)[C@@H]2CCCN2C(=O)[C@H](Cc2cccc4ccccc24)NC(=O)[C@H](CO)NC1=O)C(=O)N[C@@H](CC(C)C)C(=O)N[C@@H](Cc1c[nH]cn1)C(=O)N[C@@H](CCC(N)=O)C(=O)N[C@@H](CC(=O)O)C(=O)N[C@@H](CC(C)C)C(=O)N[C@H](C(N)=O)CSC3 [Ac-(06-34-18) 1NAL2] (Ac-CS[1Nal]PARCLHQDLC-NH2; linker 1-7-13 via TBMB)
CC(=O)N[C@H]1CSCc2cc3cc(c2)CSC[C@H](NC(=O)[C@H](CCCNC(=N)N)NC(=O)[C@H](C)NC(=O)[C@@H]2CCCN2C(=O)[C@H](C(c2ccccc2)c2ccccc2)NC(=O)[C@H](CO)NC1=O)C(=O)N[C@@H](CC(C)C)C(=O)N[C@@H](Cc1c[nH]cn1)C(=O)N[C@@H](CCC(N)=O)C(=O)N[C@@H](CC(=O)O)C(=O)N[C@@H](CC(C)C)C(=O)N[C@H](C(N)=O)CSC3 [Ac-(06-34-18) 3,3-DPA2] (Ac-CS[Dip]PARCLHQDLC-NH2; linker 1-7-13 via TBMB)
CC(=O)N[C@H]1CSCc2cc3cc(c2)CSC[C@H](NC(=O)[C@H](CCCNC(=N)N)NC(=O)[C@H](C)NC(=O)[C@@H]2CCCN2C(=O)[C@H](Cc2cccnc2)NC(=O)[C@H](CO)NC1=O)C(=O)N[C@@H](CC(C)C)C(=O)N[C@@H](Cc1c[nH]cn1)C(=O)N[C@@H](CCC(N)=O)C(=O)N[C@@H](CC(=O)O)C(=O)N[C@@H](CC(C)C)C(=O)N[C@H](C(N)=O)CSC3 [Ac-(06-34-18) 3Pal2] (Ac-CS[3Pal]PARCLHQDLC-NH2; linker 1-7-13 via TBMB)
CC(=O)N[C@H]1CSCc2cc3cc(c2)CSC[C@H](NC(=O)[C@H](CCCNC(=N)N)NC(=O)[C@H](C)NC(=O)[C@@H]2CCCN2C(=O)[C@H](Cc2ccc(-c4ccccc4)cc2)NC(=O)[C@H](CO)NC1=O)C(=O)N[C@@H](CC(C)C)C(=O)N[C@@H](Cc1c[nH]cn1)C(=O)N[C@@H](CCC(N)=O)C(=O)N[C@@H](CC(=O)O)C(=O)N[C@@H](CC(C)C)C(=O)N[C@H](C(N)=O)CSC3 [Ac-(06-34-18) 4,4,BPal2] (Ac-CS[Bip]PARCLHQDLC-NH2; linker 1-7-13 via TBMB)
CC(=O)N[C@H]1CSCc2cc3cc(c2)CSC[C@H](NC(=O)[C@H](CCCNC(=N)N)NC(=O)[C@H](C)NC(=O)[C@@H]2C[C@@H](F)CN2C(=O)[C@H](Cc2c[nH]c4ccccc24)NC(=O)[C@H](CO)NC1=O)C(=O)N[C@@H](CC(C)C)C(=O)N[C@@H](Cc1c[nH]cn1)C(=O)N[C@@H](CCC(N)=O)C(=O)N[C@@H](CC(=O)O)C(=O)N[C@@H](CC(C)C)C(=O)N[C@H](C(N)=O)CSC3 [Ac-(06-34-18) 4FluoPro3] (Ac-CSW[Pro(trans-4-F)]ARCLHQDLC-NH2; linker 1-7-13 via TBMB)
CC(=O)N[C@H]1CSCc2cc3cc(c2)CSC[C@H](NC(=O)[C@H](CCCNC(=N)N)NC(=O)[C@H](C)NC(=O)[C@@H]2CCCN2C(=O)[C@H](Cc2ccncc2)NC(=O)[C@H](CO)NC1=O)C(=O)N[C@@H](CC(C)C)C(=O)N[C@@H](Cc1c[nH]cn1)C(=O)N[C@@H](CCC(N)=O)C(=O)N[C@@H](CC(=O)O)C(=O)N[C@@H](CC(C)C)C(=O)N[C@H](C(N)=O)CSC3 [Ac-(06-34-18) 4Pal2] (Ac-CS[4Pal]PARCLHQDLC-NH2; linker 1-7-13 via TBMB)
CC(=O)N[C@H]1CSCc2cc3cc(c2)CSC[C@H](NC(=O)[C@H](CCCNC(=N)N)NC(=O)[C@H](C)NC(=O)[C@@H]2CCCN2C(=O)[C@H](CC2CCCCC2)NC(=O)[C@H](CO)NC1=O)C(=O)N[C@@H](CC(C)C)C(=O)N[C@@H](Cc1c[nH]cn1)C(=O)N[C@@H](CCC(N)=O)C(=O)N[C@@H](CC(=O)O)C(=O)N[C@@H](CC(C)C)C(=O)N[C@H](C(N)=O)CSC3 [Ac-(06-34-18) Cha2] (Ac-CS[Cha]PARCLHQDLC-NH2; linker 1-7-13 via TBMB)
CCCC1(CCC)NC(=O)[C@@H](NC(C)=O)CSCc2cc3cc(c2)CSC[C@H](NC(=O)[C@H](CCCNC(=N)N)NC(=O)[C@H](C)NC(=O)[C@@H]2CCCN2C(=O)[C@H](Cc2c[nH]c4ccccc24)NC1=O)C(=O)N[C@@H](CC(C)C)C(=O)N[C@@H](Cc1c[nH]cn1)C(=O)N[C@@H](CCC(N)=O)C(=O)N[C@@H](CC(=O)O)C(=O)N[C@@H](CC(C)C)C(=O)N[C@H](C(N)=O)CSC3 [Ac-(06-34-18) Dpg1] (Ac-C[Dpg]WPARCLHQDLC-NH2; linker 1-7-13 via TBMB)
CC(=O)N[C@H]1CSCc2cc3cc(c2)CSC[C@H](NC(=O)[C@H](CCCNC(=N)N)NC(=O)[C@H](C)NC(=O)[C@@H]2Cc4ccccc4N2C(=O)[C@H](Cc2c[nH]c4ccccc24)NC(=O)[C@H](CO)NC1=O)C(=O)N[C@@H](CC(C)C)C(=O)N[C@@H](Cc1c[nH]cn1)C(=O)N[C@@H](CCC(N)=O)C(=O)N[C@@H](CC(=O)O)C(=O)N[C@@H](CC(C)C)C(=O)N[C@H](C(N)=O)CSC3 [Ac-(06-34-18) Ind3] (Ac-CSW[X1]ARCLHQDLC-NH2; linker 1-7-13 via TBMB)
CC(=O)N[C@H]1CSCc2cc3cc(c2)CSC[C@H](NC(=O)[C@H](CCCNC(=N)N)NC(=O)[C@H](C)NC(=O)[C@@H]2CCCN2C(=O)[C@@H]2Cc4c([nH]c5ccccc45)CN2C(=O)[C@H](CO)NC1=O)C(=O)N[C@@H](CC(C)C)C(=O)N[C@@H](Cc1c[nH]cn1)C(=O)N[C@@H](CCC(N)=O)C(=O)N[C@@H](CC(=O)O)C(=O)N[C@@H](CC(C)C)C(=O)N[C@H](C(N)=O)CSC3 [Ac-(06-34-18) NorHar2] (Ac-CS[Tpi]PARCLHQDLC-NH2; linker 1-7-13 via TBMB)
CC(=O)N[C@H]1CSCc2cc3cc(c2)CSC[C@H](NC(=O)[C@H](CCCNC(=N)N)NC(=O)[C@H](C)NC(=O)[C@@H]2Cc4c([nH]c5ccccc45)CN2C(=O)[C@H](Cc2c[nH]c4ccccc24)NC(=O)[C@H](CO)NC1=O)C(=O)N[C@@H](CC(C)C)C(=O)N[C@@H](Cc1c[nH]cn1)C(=O)N[C@@H](CCC(N)=O)C(=O)N[C@@H](CC(=O)O)C(=O)N[C@@H](CC(C)C)C(=O)N[C@H](C(N)=O)CSC3 [Ac-(06-34-18) NorHar3] (Ac-CSW[Tpi]ARCLHQDLC-NH2; linker 1-7-13 via TBMB)
CC(=O)N[C@H]1CSCc2cc3cc(c2)CSC[C@H](NC(=O)[C@H](CCCNC(=N)N)NC(=O)[C@H](C)NC(=O)[C@@H]2CCCCN2C(=O)[C@H](Cc2c[nH]c4ccccc24)NC(=O)[C@H](CO)NC1=O)C(=O)N[C@@H](CC(C)C)C(=O)N[C@@H](Cc1c[nH]cn1)C(=O)N[C@@H](CCC(N)=O)C(=O)N[C@@H](CC(=O)O)C(=O)N[C@@H](CC(C)C)C(=O)N[C@H](C(N)=O)CSC3 [Ac-(06-34-18) Pip3] (Ac-CSW[Pip]ARCLHQDLC-NH2; linker 1-7-13 via TBMB)
CC(=O)N[C@H]1CSCc2cc3cc(c2)CSC[C@H](NC(=O)[C@H](CCCNC(=N)N)NC(=O)[C@H](CO)NC(=O)[C@@H]2CCCN2C(=O)[C@H](Cc2c[nH]c4ccccc24)NC(=O)[C@H](CO)NC1=O)C(=O)N[C@@H](CC(C)C)C(=O)N[C@@H](Cc1c[nH]cn1)C(=O)N[C@@H](CCC(N)=O)C(=O)N[C@@H](CC(=O)O)C(=O)N[C@@H](CC(C)C)C(=O)N[C@H](C(N)=O)CSC3 [Ac-(06-34-18) WPSR] (Ac-CSWPSRCLHQDLC-NH2; linker 1-7-13 via TBMB)

Observable in rat plasma, for days, >10 days:
CC(=O)N[C@H]1CSCc2cc3cc(c2)CSC[C@H](NC(=O)[C@H](CCCCNC(=N)N)NC(=O)[C@H](C)NC(=O)[C@@H]2CCN2C(=O)[C@H](Cc2c[nH]c4ccccc24)NC(=O)[C@H](CO)NC1=O)C(=O)N[C@@H](CC(C)C)C(=O)N[C@@H](Cc1c[nH]cn1)C(=O)N[C@@H](CCC(N)=O)C(=O)N[C@@H](CC(=O)O)C(=O)N[C@@H](CC(C)C)C(=O)N[C@H](C(N)=O)CSC3 [Ac-(06-34-18) Aze3 HomoArg5] (Ac-CSW[Aze]A[hArg]CLHQDLC-NH2; linker 1-7-13 via TBMB)
CC(=O)N[C@H]1CSCc2cc3cc(c2)CSC[C@H](NC(=O)[C@H](CCCNC(=N)N)N(C)C(=O)[C@H](C)NC(=O)[C@@H]2CCN2C(=O)[C@H](Cc2c[nH]c4ccccc24)NC(=O)[C@H](CO)NC1=O)C(=O)N[C@@H](CC(C)C)C(=O)N[C@@H](Cc1c[nH]cn1)C(=O)N[C@@H](CCC(N)=O)C(=O)N[C@@H](CC(=O)O)C(=O)N[C@@H](CC(C)C)C(=O)N[C@H](C(N)=O)CSC3 [Ac-(06-34-18) Aze3 NMeArg5] (Ac-CSW[Aze]A[NMeR]CLHQDLC-NH2; linker 1-7-13 via TBMB)
